The values below are quoted from earlier work in article PMC12308805, “Ultrahigh-Throughput Virtual Screening Strategies against PPI Targets: A Case Study of STAT Inhibitors” (Journal of Chemical Information and Modeling, 2025).

In the first series the test system is STAT3. The settings on record: sheet 6QHD_actives_decoys; retrospective screening set for STAT3 SH2 domain (PDB 6QHD); […]; ref DUD-E; cited from earlier work.
Regarding `C=C1[C@@H](O)[C@@H]2O[C@]3(CC[C@@H]2O[C@@H]1[C@@H](O)C[C@H](C)[C@H]1O[C@@]2(CCCCO2)CC[C@H]1C)CC[C@H](/C=C/[C@@H](C)[C@H]1CC(C)=C[C@@]2(O[C@@H](C[C@@](C)(O)C(=O)O)CC[C@H]2O)O1)O3` [Decoy484], the Type result is reported as “Inactive (Decoy)”.
Turning to `Cc1cc(NS(=O)(=O)c2ccc(NC(=S)NC(=O)COc3ccc([N+](=O)[O-])cc3)cc2)no1` [Decoy494], the Type entry was “Inactive (Decoy)”.
Take `CC[C@H](C)N1C(=O)NC(=O)/C(=C/Nc2ccc3c(c2)C[C@]2(C(=O)NC(=O)N=C2O)[C@H]2CN(C)CCN32)C1=O` [Decoy502]: the Type entry is recorded as “Inactive (Decoy)”.
Regarding `Nc1n(-c2ccccc2)c(=O)c(C(c2ccc([N+](=O)[O-])cc2)c2c([O-])[n+](-c3ccccc3)c(N)n(-c3ccccc3)c2=O)c([O-])[n+]1-c1ccccc1` [Decoy514], the Type result is listed as “Inactive (Decoy)”.
Take `COc1ccccc1/C=C/C(=O)NC(=S)Nc1ccc(S(=O)(=O)Nc2cc(C)on2)cc1` [Decoy519]: the Type entry is listed as “Inactive (Decoy)”.
As to `Cc1ccnc(NS(=O)(=O)c2ccc(NC(=O)c3cc([N+](=O)[O-])c(Cl)c([N+](=O)[O-])c3)cc2)n1` [Decoy530], the Type entry is on record as “Inactive (Decoy)”.

The same series, now with this note: sheet 6QHD_actives_decoys; retrospective screening set for STAT3 SH2 domain (PDB 6QHD); decoys generated with DUD-E and presumed inactive, not tested; ref DUD-E; cited from earlier work.
Regarding `Cc1cc(NS(=O)(=O)c2ccc(N/N=C(/C#N)C(=O)Nc3ccc(S(N)(=O)=O)cc3)cc2)no1` [Decoy483], the Type entry is reported as “Inactive (Decoy)”.
Take `COc1cc(NS(=O)(=O)c2ccc(NC(=O)c3cccc(COc4cccc(Cl)c4)c3)cc2)nc(OC)n1` [Decoy485]: the Type result is reported as “Inactive (Decoy)”.
In the case of `O=C(Nc1ccc2c(O)c(/N=N/c3ccccc3)c(S(=O)(=O)O)cc2c1)Nc1ccc2c(O)c(/N=N/c3ccccc3)c(S(=O)(=O)O)cc2c1` [Decoy486], the Type entry is “Inactive (Decoy)”.
On to `O=C(CSc1n[nH]c(N/N=C/c2ccc(OCc3ccc(F)cc3)o2)n1)Nc1nccs1` [Decoy487], for which the Type entry was “Inactive (Decoy)”.
As to `COCCOc1ccc(C(F)(F)F)cc1NC(=O)CSc1nnc(-c2ccc(OC)cc2)o1` [Decoy488], the Type entry is “Inactive (Decoy)”.
Take `CCOC(=O)c1ccc(NC(=O)COc2cc(Br)c([C@H]3NC(=S)N=C(C)/C3=C(/O)OC)cc2OC)cc1` [Decoy489]: the Type result is on record as “Inactive (Decoy)”.
As for `NS(=O)(=O)c1ccc(CCNC(=O)CCCCCn2c(=S)[nH]c3ccc(N4CCOCC4)cc3c2=O)cc1` [Decoy490], the Type result was “Inactive (Decoy)”.
For the compound `C=C(CCO)C(=O)OC[C@@H]1OC[C@H](OC(=O)C(=C)CCO[C@@H]2O[C@H](COC(=O)C(=C)CCO)[C@@H](O)[C@H](O)[C@H]2O)[C@@H](O)[C@H]1O` [Decoy491], the Type result is recorded as “Inactive (Decoy)”.
For the compound `C=C(CCO)C(=O)OC[C@H]1OC[C@@H](OC(=O)C(=C)CCO[C@@H]2O[C@H](COC(=O)C(=C)CCO)[C@@H](O)[C@H](O)[C@H]2O)[C@@H](O)[C@H]1O` [Decoy492], the Type entry is “Inactive (Decoy)”.
Regarding `C=C(CCO)C(=O)OC[C@H]1OC[C@H](OC(=O)C(=C)CCO[C@@H]2O[C@H](COC(=O)C(=C)CCO)[C@@H](O)[C@H](O)[C@H]2O)[C@@H](O)[C@H]1O` [Decoy493], the Type entry is “Inactive (Decoy)”.
For the compound `CCN(CC)C1=NC(=O)[C@@H](CC(=O)Nc2cccc(C(=O)OCC(=O)c3ccc(C)cc3)c2)S1` [Decoy495], the Type result was “Inactive (Decoy)”.
For `COC(=O)c1ccc2c(=O)n(CCc3ccc(S(N)(=O)=O)cc3)c(SCC(=O)Nc3ccc(C)cc3)nc2c1` [Decoy496], the Type entry is “Inactive (Decoy)”.
For the compound `COC(=O)[C@@H]1O[C@H](OC/C(=N/NC(N)=O)[C@H]2CC[C@@H]3[C@@H]4CC[C@@H]5C[C@H](OC(C)=O)CC[C@@]5(C)[C@H]4C(=O)C[C@@]23C)[C@@H](OC(C)=O)[C@H](OC(C)=O)[C@H]1OC(C)=O` [Decoy497], the Type entry is given as “Inactive (Decoy)”.
Take `COC(=O)[C@@H]1O[C@H](OC/C(=N/NC(N)=O)[C@H]2CC[C@@H]3[C@@H]4CC[C@@H]5C[C@H](OC(C)=O)CC[C@@]5(C)[C@H]4[C@H](O)C[C@@]23C)[C@@H](OC(C)=O)[C@H](OC(C)=O)[C@H]1OC(C)=O` [Decoy498]: the Type entry was “Inactive (Decoy)”.
As to `CCOC(=O)c1cc(C(=O)OCC)c(=O)[nH]c1NN=C1CCN(c2ncc(C(F)(F)F)cc2Cl)CC1` [Decoy499], the Type entry is reported as “Inactive (Decoy)”.
In the case of `COc1cc(NC(=O)CSc2n[nH]c(N/N=C/c3cc([N+](=O)[O-])ccc3O)n2)ccc1Cl` [Decoy500], the Type entry is “Inactive (Decoy)”.
As to `Nc1ccc2cc(S(=O)(=O)O)cc(O)c2c1/N=N/c1ccccc1S(=O)(=O)NCC1CCCCC1` [Decoy501], the Type entry was “Inactive (Decoy)”.
With `O=C(O)CN(CC(=O)O)[C@H](CCCCNC(=S)Nc1ccc(-c2c3ccc(=O)cc-3oc3cc(O)ccc23)c(C(=O)O)c1)C(=O)O` [Decoy503], the Type result is “Inactive (Decoy)”.
As to `CCN(CC)c1ccc(C(=O)OCC(=O)Nc2cccc(S(=O)(=O)/N=C3\CCCCCN3)c2)cc1` [Decoy504], the Type result is recorded as “Inactive (Decoy)”.
For `NCCCCCCNc1ncnc2c1ncn2[C@@H]1O[C@H](COP(=O)(O)O)[C@@H](OP(=O)(O)O)[C@H]1O` [Decoy505], the Type result is reported as “Inactive (Decoy)”.
Take `C=C(CO[C@@H]1[C@H](O)[C@H](CO)O[C@@H](OCC#Cc2ccc(O)c(C(=O)OC)c2)[C@H]1NC(C)=O)C(=O)OCC` [Decoy506]: the Type result is “Inactive (Decoy)”.
For the compound `C=C(CO[C@H]1[C@H](O)[C@H](CO)O[C@@H](OCC#Cc2ccc(O)c(C(=O)OC)c2)[C@H]1NC(C)=O)C(=O)OCC` [Decoy507], the Type entry is reported as “Inactive (Decoy)”.
Regarding `C=CCn1c(CNc2ccc(C)cc2)nnc1SCCC(=O)Nc1sc(C(=O)OCC)c(C)c1C#N` [Decoy508], the Type entry is “Inactive (Decoy)”.
For the compound `CCOc1ccc(-c2n[nH]c3c2[C@H](c2cc(OC)c(OC(C)=O)c(OC)c2)C(C#N)=C(N)O3)cc1` [Decoy509], the Type result was “Inactive (Decoy)”.
For `COc1cc(/C=N/NC(=O)CC(=O)N/N=C/c2cc(Br)c(O)c(OC)c2)cc(Br)c1O` [Decoy510], the Type result is “Inactive (Decoy)”.
Take `O=c1ccn([C@@H]2O[C@@H](CO[P@@](=O)(O)O[P@@](=O)(O)OP(=O)(O)O)[C@@H](O)[C@@H]2O)c(=O)[nH]1` [Decoy511]: the Type entry is given as “Inactive (Decoy)”.
Regarding `COc1cc(NC(=O)c2cnn3c2N[C@H](c2cc(OC)c(OC)c(OC)c2)C[C@@H]3C(F)(F)F)cc([N+](=O)[O-])c1` [Decoy512], the Type result was “Inactive (Decoy)”.
As for `CCOC(=O)CNC(=O)[C@H](c1ccc(O)cc1)N(C(=O)c1snc(C(N)=O)c1N)c1ccccc1CC` [Decoy513], the Type entry is given as “Inactive (Decoy)”.
Regarding `O=C(O)CN(CC(=O)O)[C@@H](CCCCNC(=S)Nc1ccc(-c2c3ccc(=O)cc-3oc3cc(O)ccc23)c(C(=O)O)c1)C(=O)O` [Decoy515], the Type result was “Inactive (Decoy)”.
Consider `Cn1c(CNc2ccc(C(=N)N)cc2)nc2cc(C(=O)N(CCC(=O)O[C@@H]3O[C@H](C(=O)O)[C@@H](O)[C@H](O)[C@H]3O)c3ccccn3)ccc21` [Decoy516], for which the Type result is listed as “Inactive (Decoy)”.
Consider `CCOC(=O)c1sc(N/N=C(\C(=O)Nc2cccc(OC)c2)C(=O)c2ccc([N+](=O)[O-])cc2)c(C(=O)OCC)c1C` [Decoy517], for which the Type entry is recorded as “Inactive (Decoy)”.
For the compound `CCNS(=O)(=O)c1ccc(C)c(C(=O)OCC(=O)NNC(=O)c2ccccc2Cl)c1` [Decoy518], the Type result is “Inactive (Decoy)”.
`CCOc1ccc(-n2c(CNC(=O)c3ccc(S(=O)(=O)N(C)C)cc3)nnc2SCC(=O)Nc2cccc(C)c2)cc1` [Decoy520]: the Type entry is “Inactive (Decoy)”.
On to `CCCc1nc(C(C)(C)O[C@@H]2O[C@H](C(=O)O)[C@@H](O)[C@H](O)[C@H]2O)c(C(=O)O)n1Cc1ccc(-c2ccccc2-c2nnn[nH]2)cc1` [Decoy521], for which the Type result was “Inactive (Decoy)”.
On to `CCOC(=O)Cc1csc(NC(=O)CSc2nnc(Cc3csc(N)n3)n2C)n1` [Decoy522], for which the Type entry is recorded as “Inactive (Decoy)”.
Take `Cc1nnc(SCC2=C(C(=O)NCC(C)C)N3C(=O)[C@H](NC(=O)c4nn(C)c(C)c4Br)[C@H]3SC2)s1` [Decoy523]: the Type result was “Inactive (Decoy)”.
`C[C@@]12CCC[C@@](C)(C(=O)O[C@@H]3O[C@@H](CO)[C@@H](O)[C@@H](O)[C@H]3O)[C@H]1CC[C@]13C[C@H](CC[C@H]12)[C@@](CO)(O[C@@H]1O[C@@H](CO)[C@@H](O)[C@@H](O)[C@H]1O)C3` [Decoy524]: the Type entry was “Inactive (Decoy)”.
In the case of `C[C@@H](OC(=O)CCC(=O)Nc1ccc(C(=O)OCC(=O)c2cccc([N+](=O)[O-])c2)cc1)C(=O)c1cccc(Cl)c1` [Decoy525], the Type result was “Inactive (Decoy)”.
As for `O=C(NCCCN1CCN(CCCNC(=O)c2cc3ccccc3oc2=O)CC1)c1cc2ccccc2oc1=O` [Decoy526], the Type result is listed as “Inactive (Decoy)”.
With `COc1ccc([C@H]2Oc3c(OC)cc(CCCO)cc3[C@@H]2CO)cc1O[C@@H]1O[C@@H](CO)[C@@H](O)[C@@H](O)[C@@H]1O` [Decoy527], the Type entry is recorded as “Inactive (Decoy)”.
`COc1ccc(OC)c(-n2c(CNC(=O)c3ccc(S(=O)(=O)N(C)C)cc3)nnc2SCC(=O)Nc2ccc(F)cc2)c1` [Decoy528]: the Type result was “Inactive (Decoy)”.
As to `COC(=O)CNC(=O)c1ccc(NC(=O)c2nc(NCc3ccco3)ncc2Cl)cc1` [Decoy529], the Type entry was “Inactive (Decoy)”.
For `COc1ccc(C(=O)NCCc2nnc3ccc(SCC(=O)Nc4ccc(OC(F)(F)F)cc4)nn23)cc1` [Decoy531], the Type entry is recorded as “Inactive (Decoy)”.
As to `C[C@H](CCC(=O)NCC(=O)NCCS(=O)(=O)O)[C@H]1CC[C@H]2[C@@H]3[C@H](O)C[C@@H]4C[C@H](O)CC[C@]4(C)[C@H]3C[C@H](O)[C@]12C` [Decoy532], the Type result is listed as “Inactive (Decoy)”.
For the compound `CCOC(=O)c1c(NC(=O)[C@@H](C)Sc2nnc(CNC(=O)c3cc(OC)cc(OC)c3)n2C)sc2c1CCC2` [Decoy533], the Type entry is recorded as “Inactive (Decoy)”.
Consider `CCOc1ccc(S(=O)(=O)NC[C@@H](c2cccnc2)S(=O)(=O)c2ccc(OCC)cc2)cc1` [Decoy534], for which the Type entry is “Inactive (Decoy)”.
